Test results: ChEMBL document CHEMBL1126033, “C-terminal modifications of nonpeptide renin inhibitors: improved oral bioavailability via modification of physicochemical properties” (J Med Chem, 1992)

Legend:
Renin [1] = biological target: T1, Renin (Homo sapiens, UniProt P00797); experiment: In vitro activity against human renin (pH 6.0)
T1 sequence (P00797 whole entry): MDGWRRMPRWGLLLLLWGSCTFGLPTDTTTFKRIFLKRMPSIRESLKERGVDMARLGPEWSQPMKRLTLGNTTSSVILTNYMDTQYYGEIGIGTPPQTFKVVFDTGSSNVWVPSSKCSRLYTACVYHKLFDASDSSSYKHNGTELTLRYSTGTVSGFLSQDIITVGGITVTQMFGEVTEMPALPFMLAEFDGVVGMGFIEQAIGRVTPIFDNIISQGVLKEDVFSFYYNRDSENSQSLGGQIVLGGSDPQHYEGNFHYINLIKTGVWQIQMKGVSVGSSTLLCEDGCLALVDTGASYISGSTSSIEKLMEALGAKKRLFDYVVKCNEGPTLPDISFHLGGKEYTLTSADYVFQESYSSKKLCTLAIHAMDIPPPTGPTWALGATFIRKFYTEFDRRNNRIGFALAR

Renin [2] = biological target: T1, Renin; type: cell-free, Plasma
[3] = Partition coefficient (logD6.5); conditions: octanol/water, pH 6.5
[4] = Partition coefficient (logD7.4); conditions: octanol/water, pH 7.4

SMILES | IC50 (Renin [1]) | IC50 (Renin [2]) | logD [3] | logD [4]
CC(C)[C@H](C[C@H](O)[C@H](CC1CCCCC1)NC(=O)[C@H](Cc1cnc[nH]1)NC(=O)[C@H](Cc1ccccc1)NC(=O)OC(C)(C)C)NC(=O)OCCCN(C)C | 2.8 nM | 17 nM |  | 
CC(C)[C@H](C[C@H](O)[C@H](CC1CCCCC1)NC(=O)[C@H](Cc1c[nH]cn1)NC(=O)[C@H](Cc1ccccc1)NC(=O)OC(C)(C)C)NC(=O)OCCc1ccccn1 | 1.3 nM | 17 nM |  | 
CCCC[C@H](O[C@@H](Cc1ccccc1)C(=O)N1CCC(OCOC)CC1)C(=O)N[C@@H](CC1CCCCC1)[C@@H](O)C[C@H](C(=O)NCCc1ccccn1)C(C)C | 1 nM | 5.1 nM | > 5 | > 5
CCCC[C@H](O[C@@H](Cc1ccccc1)C(=O)N1CCC(OCOC)CC1)C(=O)N[C@@H](CC1CCCCC1)[C@@H](O)C[C@H](NC(=O)OCCC)C(C)C | 1.5 nM | 14 nM |  | 
CCCC[C@H](O[C@@H](Cc1ccccc1)C(=O)N1CCC(OCOC)CC1)C(=O)N[C@@H](CC1CCCCC1)[C@@H](O)C[C@H](NC(=O)OCCCN(C)C)C(C)C | 2.4 nM | 12 nM | 2.9 | 3.8
CCCOC(=O)N[C@@H](C[C@H](O)[C@H](CC1CCCCC1)NC(=O)[C@H](Cc1cnc[nH]1)NC(=O)[C@H](Cc1ccccc1)NC(=O)OC(C)(C)C)C(C)C | 1.7 nM | 16 nM |  | 
CCCC[C@H](O[C@@H](Cc1ccccc1)C(=O)N1CCC(OCOC)CC1)C(=O)N[C@@H](CC1CCCCC1)[C@@H](O)C[C@H](NC(=O)OCCC(C)C)C(C)C | 5 nM | 56 nM |  | 
CC(C)[C@H](C[C@H](O)[C@H](CC1CCCCC1)NC(=O)[C@H](Cc1cnc[nH]1)NC(=O)[C@H](Cc1ccccc1)NC(=O)OC(C)(C)C)NC(=O)OCCN1CCOCC1 | 1.3 nM | 4.7 nM |  | 
CCCCC(=O)N[C@@H](C[C@H](O)[C@H](CC1CCCCC1)NC(=O)[C@H](CCCC)O[C@@H](Cc1ccccc1)C(=O)N1CCC(OCOC)CC1)C(C)C |  | 53 nM |  | 
CCCC[C@H](O[C@@H](Cc1ccccc1)C(=O)N1CCC(OCOC)CC1)C(=O)N[C@@H](CC1CCCCC1)[C@@H](O)C[C@H](C(=O)N(C)CCCN(C)C)C(C)C | 57 nM | 270 nM | 2.5 | 3.7
CCCNC(=O)N[C@@H](C[C@H](O)[C@H](CC1CCCCC1)NC(=O)[C@H](Cc1c[nH]cn1)NC(=O)[C@H](Cc1ccccc1)NC(=O)OC(C)(C)C)C(C)C | 2.7 nM | 83 nM |  | 
CCCC[C@H](O[C@@H](Cc1ccccc1)C(=O)N1CCC(OCOC)CC1)C(=O)N[C@@H](CC1CCCCC1)[C@@H](O)C[C@H](C(=O)N(C)CCN(C)C)C(C)C | 30 nM | 290 nM | 3.3 | > 5
CC(C)[C@H](C[C@H](O)[C@H](CC1CCCCC1)NC(=O)[C@H](Cc1c[nH]cn1)NC(=O)[C@H](Cc1ccccc1)NC(=O)OC(C)(C)C)NS(=O)(=O)C(C)C | 67 nM |  |  | 
CCCCC(=O)N[C@@H](C[C@H](O)[C@H](CC1CCCCC1)NC(=O)[C@H](Cc1c[nH]cn1)NC(=O)[C@H](Cc1ccccc1)NC(=O)OC(C)(C)C)C(C)C | 6 nM | 200 nM |  | 

The next lines start with the values.

IC50 (Renin [1]) | IC50 (Renin [2]) | logD [3] | logD [4] | SMILES
1.8 nM | 9.5 nM | 3.9 | 4.3 | CCCC[C@H](N[C@@H](Cc1ccccc1)C(=O)N1CCC(OCOC)CC1)C(=O)N[C@@H](CC1CCCCC1)[C@@H](O)C[C@H](NC(=O)OCCN1CCOCC1)C(C)C
110 nM |  |  |  | CCCC[C@H](O[C@@H](Cc1ccccc1)C(=O)N1CCC(OCOC)CC1)C(=O)N[C@@H](CC1CCCCC1)[C@@H](O)C[C@H](N)C(C)C
2.4 nM | 16 nM |  |  | CCCC[C@H](O[C@@H](Cc1ccccc1)C(=O)N1CCC(OCOC)CC1)C(=O)N[C@@H](CC1CCCCC1)[C@@H](O)C[C@H](NC(=O)NCCC)C(C)C
4.3 nM | 61 nM |  |  | CCCC[C@H](O[C@@H](Cc1ccccc1)C(=O)N1CCC(OCOC)CC1)C(=O)N[C@@H](CC1CCCCC1)[C@@H](O)C[C@H](NS(C)(=O)=O)C(C)C
17 nM | 79 nM | 3.7 |  | CCCC[C@H](O[C@@H](Cc1ccccc1)C(=O)N1CCC(OCOC)CC1)C(=O)N[C@@H](CC1CCCCC1)[C@@H](O)C[C@H](C(=O)N1CCCN(C)CC1)C(C)C
2.7 nM | 28 nM |  |  | CC(C)[C@H](C[C@H](O)[C@H](CC1CCCCC1)NC(=O)[C@H](Cc1c[nH]cn1)NC(=O)[C@H](Cc1ccccc1)NC(=O)OC(C)(C)C)NC(=O)OCCN1CCCC1
1.3 nM | 3.5 nM |  |  | CCCC[C@H](O[C@@H](Cc1ccccc1)C(=O)N1CCC(OCOC)CC1)C(=O)N[C@@H](CC1CCCCC1)[C@@H](O)C[C@H](C(=O)NCCC[N+]1([O-])CCOCC1)C(C)C
2.1 nM | 6.1 nM | 2.2 | 2.8 | CCCC[C@H](N[C@@H](Cc1ccccc1)C(=O)N1CCC(OCOC)CC1)C(=O)N[C@@H](CC1CCCCC1)[C@@H](O)C[C@H](C(=O)NCCCN(C)C)C(C)C
11 nM |  |  |  | CC(C)[C@H](C[C@H](O)[C@H](CC1CCCCC1)NC(=O)[C@H](Cc1c[nH]cn1)NC(=O)[C@H](Cc1ccccc1)NC(=O)OC(C)(C)C)NC(=O)OCc1ccccc1
28 nM |  |  |  | CC(C)[C@H](C[C@H](O)[C@H](CC1CCCCC1)NC(=O)[C@H](Cc1c[nH]cn1)NC(=O)[C@H](Cc1ccccc1)NC(=O)OC(C)(C)C)NS(C)(=O)=O
2 nM | 7.6 nM |  |  | CCCC[C@H](N[C@@H](Cc1ccccc1)C(=O)N1CCC(OCOC)CC1)C(=O)N[C@@H](CC1CCCCC1)[C@@H](O)C[C@H](C(=O)NCCCn1ccnc1)C(C)C
2.2 nM | 83 nM |  |  | CCCC[C@H](O[C@@H](Cc1ccccc1)C(=O)N1CCC(OCOC)CC1)C(=O)N[C@@H](CC1CCCCC1)[C@@H](O)C[C@H](NC(=O)OCc1ccccc1)C(C)C
2.3 nM | 12 nM |  |  | CC(C)[C@H](C[C@H](O)[C@H](CC1CCCCC1)NC(=O)[C@H](Cc1c[nH]cn1)NC(=O)[C@H](Cc1ccccc1)NC(=O)OC(C)(C)C)NC(=O)OCCN(C)C
2.9 nM | 5.7 nM | 3.3 | 4.3 | CCCC[C@H](O[C@@H](Cc1ccccc1)C(=O)N1CCC(OCOC)CC1)C(=O)N[C@@H](CC1CCCCC1)[C@@H](O)C[C@H](C(=O)NCCN(C)C)C(C)C
2.5 nM | 13 nM |  |  | CCCC[C@H](O[C@@H](Cc1ccccc1)C(=O)N1CCC(OCOC)CC1)C(=O)N[C@@H](CC1CCCCC1)[C@@H](O)C[C@H](NC(=O)OCCN1CCCC1)C(C)C
 | 5 nM |  |  | CCCC[C@H](O[C@@H](Cc1ccccc1)C(=O)N1CCC(OCOC)CC1)C(=O)N[C@@H](CC1CCCCC1)[C@@H](O)C[C@H](C(=O)NCCC[N+](C)(C)[O-])C(C)C
0.9 nM | 40 nM | 2.7 | 3.4 | CCCC[C@H](O[C@@H](Cc1ccccc1)C(=O)N1CCC(OCOC)CC1)C(=O)N[C@@H](CC1CCCCC1)[C@@H](O)C[C@H](NC(=O)OCCc1ccccn1)C(C)C
